Assay results published in patent US20190008870A1, “COMPOSITIONS AND METHODS FOR LIPID METABOLISM DISORDER” (JANSFAT BIOTECHNOLOGY CO., LTD., priority 2016, published 2019).
Blank lines part the entries; values can stand above or below the molecule they belong to.

Experiments:
ABCA1 [1] = assay: HFD-induced ABCA1 expression in liver; type: in vivo, mice
[2] = target: T1, Human recombinant HMG CoA reductase (Homo sapiens, UniProt P04035); assay: HMG CoA reductase activity and [14C]mevalonate formation; type: biochemical
T1 construct: purchased Sigma-Aldrich H7039; host or cells: E. coli
Experimental: Human recombinant HMG CoA reductase expressed in E. coli (H7039, Sigma-Aldrich, MO, U.S.A.) was used. Human recombinant HMG-CoA reductase, examined by SDS-PAGE to be ≥90% in purity, 2-8 units/mg protein in activity and ˜76 kDa in molecular weight (H7039, Sigma-Aldrich, St. Louis, Mo. U.S.A.), was used for determining the formation of [^14C]mevalonate. KMUP-1 and targeted drugs were pre-incubated with 35 ng/ml enzyme in phosphate buffer pH 7.5 for 15 minutes at 37° C. The reaction was initiated by the addition of 2.5 μM [^14C]HMG-CoA for another 20 minutes incubation period and terminated by further addition of 1 N HCl. An aliquot was removed by column and counted to determine the amount of [^14C]mevalonate formed (Ricera® Co. Ltd., Taipei, Taiwan).

PPARγ = PPARγ expression in HepG2 cells; type: cell-based; details: for PPARγ expression: 10^−5 M, 24 hours, Control 100, Vehicle 260
Experimental: (§1) The HepG2 hepatoma cell line was purchased from the American Type Culture Collection (ATCC, Manassas, Va., U.S.A.). Cells were cultured in Dulbecco's Modified Eagle's Medium (DMEM). […] Then the targeted drugs solution was incubated with the cells for 24 hours, followed by protein extraction. […] HepG2 cells were treated with various concentrations of targeted drugs for 24 hours. Reactions were terminated by washing twice with cold PBS, and the cells were then harvested. Proteins in the whole-cell lysate were homogenized in an ice-cold lysis buffer and a protease inhibitor (Sigma-Aldrich, St. Louis, Mo., U.S.A.). The homogenate was centrifuged at 90,000×g for 15 minutes at 4° C., and supernatant was recovered as the total cellular protein. Cytosolic and membrane fractions of HepG2 cells were prepared using a CNM (Cytosol Nuclear Membrane) compartmental protein extraction kit (BioChain Institute Inc., Hayward, Calif., U.S.A.) according to the manufacturer's instructions. All of the fractionated protein solutions were stored at −80° C. until analysis. To measure the expression levels of proteins by drugs, the total cell protein was extracted after incubation with treatments for 24 hours and then Western blotting analysis was performed as described previously.

ROCK II = ROCK II expression in HepG2 cells; type: cell-based
Experimental: as §1, with “-80°” for “−80°”

ABCA1 [3] = assay: ABCA1 expression in HepG2 cells; type: cell-based; details: for ABCA1 expression: 10^−5 M, 24 hours, Control 100, Vehicle 110
Experimental: as §1

HMG CoA reductase = HMG CoA reductase expression in HepG2 cells (Western blotting); type: cell-based; details: for HMGR (%): 24 hours, CTL 100; for HMG CoA expression: Mevalonate (100 μM) + drug (10^−5 M), Control 100
Experimental: The HepG2 hepatoma cell line was purchased from the American Type Culture Collection (ATCC, Manassas, Va., U.S.A.). Cells were cultured in Dulbecco's Modified Eagle's Medium (DMEM). The culture media was supplemented with 5% heat-inactivated FBS, penicillin (100 U/mL) and streptomycin (100 μg/mL). Cells were grown in a humidified atmosphere containing 5% CO2 at 37° C., in which the oxygen tension in the incubator was held at 140 mmHg (20% O2, v/v; normoxic conditions). […] Then the targeted drugs solution was incubated with the cells for 24 hours, followed by protein extraction. The targeted drugs were added to the […].
HepG2 cells were treated with various concentrations of targeted drugs for 24 hours. Reactions were terminated by washing twice with cold PBS, and the cells were then harvested. Proteins in the whole-cell lysate were homogenized in an ice-cold lysis buffer and a protease inhibitor (Sigma-Aldrich, St. Louis, Mo., U.S.A.). The homogenate was centrifuged at 90,000×g for 15 minutes at 4° C., and supernatant was recovered as the total cellular protein. Cytosolic and membrane fractions of HepG2 cells were prepared using a CNM (Cytosol Nuclear Membrane) compartmental protein extraction kit (BioChain Institute Inc., Hayward, Calif., U.S.A.) according to the manufacturer's instructions. All of the fractionated protein solutions were stored at −80° C. until analysis. To measure the expression levels of proteins by drugs, the total cell protein was extracted after incubation with treatments for 24 hours and then Western blotting analysis was performed as described previously.

[4] = HepG2 cells, GGPP (10 μM) + drug 10^−5 M
[5] = HepG2 cells, GGPP (10 μM) + drug 10^−6 M
[6] = HepG2 cells, GGPP (10 μM) + drug 10^−7 M
[7] = HepG2 cells, GGPP (10 μM) + drug 10^−8 M
[8] = HepG2 cells, GGPP (10 μM) + drug 10^−9 M
[9] = 10^−5 M, 24 hours, Control 100, Vehicle 88

T1 sequence (P04035 426-888 limits assumed): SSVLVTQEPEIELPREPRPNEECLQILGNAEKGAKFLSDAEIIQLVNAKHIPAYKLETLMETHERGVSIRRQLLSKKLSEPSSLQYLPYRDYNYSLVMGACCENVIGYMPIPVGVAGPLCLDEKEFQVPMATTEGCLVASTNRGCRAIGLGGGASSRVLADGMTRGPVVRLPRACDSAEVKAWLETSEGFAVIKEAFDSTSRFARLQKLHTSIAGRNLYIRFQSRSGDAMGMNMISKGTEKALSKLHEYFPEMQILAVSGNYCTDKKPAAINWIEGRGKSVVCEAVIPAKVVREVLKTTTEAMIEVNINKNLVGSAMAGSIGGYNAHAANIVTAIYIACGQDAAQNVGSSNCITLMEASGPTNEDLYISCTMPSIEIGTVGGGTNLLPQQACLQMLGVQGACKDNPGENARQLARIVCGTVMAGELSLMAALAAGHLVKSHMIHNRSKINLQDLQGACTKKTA

Structure (SMILES): Cn1c(=O)c2c(ncn2CCN2CCN(c3ccccc3Cl)CC2)n(C)c1=O [KMUP-1, 7-[2-[4-(2-chlorophenyl)piperazinyl]ethyl]-1,3-dimethylxanthine]
- ABCA1 (ABCA1 [1]; HFD mice, 1 mg/kg, CTL 100): 98%
- ABCA1 (ABCA1 [1]; HFD mice, 2.5 mg/kg, CTL 100): 190%
- ABCA1 (ABCA1 [1]; HFD mice, 5 mg/kg, CTL 100): 200%
- [14C]mevalonate formation ([2]; 10 μM): could not reduce
- expression of PPARγ (PPARγ; HepG2, 10^−9-10^−5 M): increased
- increase of PPARγ (PPARγ; HepG2 cells): 2-3 folds
- PPARγ expression (PPARγ; HepG2 cells): 595
- PPARγ (PPARγ; HepG2 cells, FPP (10 μM) + drug 10^−5 M): 138%
- PPARγ (PPARγ; HepG2 cells, FPP (10 μM) + drug 10^−6 M): 140%
- PPARγ (PPARγ; HepG2 cells, FPP (10 μM) + drug 10^−7 M): 142%
- PPARγ (PPARγ; HepG2 cells, FPP (10 μM) + drug 10^−8 M): 84%
- PPARγ (PPARγ; HepG2 cells, FPP (10 μM) + drug 10^−9 M): 72%
- PPARγ (PPARγ; [4]): 120%
- PPARγ (PPARγ; [5]): 106%
- PPARγ (PPARγ; [6]): 108%
- PPARγ (PPARγ; [7]): 90%
- PPARγ (PPARγ; [8]): 78%
- ROCK II expression (ROCK II; [9]): 41
- ROCKII (ROCK II; FPP (10 μM) + drug 10^−5 M): 60%
- ROCKII (ROCK II; FPP (10 μM) + drug 10^−6 M): 80%
- ROCKII (ROCK II; FPP (10 μM) + drug 10^−7 M): 88%
- ROCKII (ROCK II; FPP (10 μM) + drug 10^−8 M): 86%
- ROCKII (ROCK II; FPP (10 μM) + drug 10^−9 M): 84%
- ROCKII (ROCK II; GGPP (10 μM) + drug 10^−5 M): 40%
- ROCKII (ROCK II; GGPP (10 μM) + drug 10^−6 M): 60%
- ROCKII (ROCK II; GGPP (10 μM) + drug 10^−7 M): 108%
- ROCKII (ROCK II; GGPP (10 μM) + drug 10^−8 M): 120%
- ROCKII (ROCK II; GGPP (10 μM) + drug 10^−9 M): 112%
- ROCK II expression (ROCK II; Rp-8-pCPT-cGMPS + KMUP-1 (10 μM), Control 100): 170
- expression of ABCA1 (ABCA1 [3]; HepG2, 10^−9-10^−5 M): increased
- ABCA1 expression (ABCA1 [3]; HepG2 cells): 200
- expression of ABCA1 suppressed by FPP or GGPP (ABCA1 [3]; HepG2 cells, FPP or GGPP (10 μM) + 10^−9-10^−5 M): reversed
- HMGR (%) (HMG CoA reductase; 10^−5 M): 270%
- HMGR (%) (HMG CoA reductase; 10^−6 M): 220%
- HMGR (%) (HMG CoA reductase; 10^−7 M): 210%
- HMGR (%) (HMG CoA reductase; 10^−8 M): 125%
- HMGR (%) (HMG CoA reductase; 10^−9 M): 120%
- HMG CoA expression (HMG CoA reductase): 62%

- inhibition of [14C]mevalonate formation ([2]; compared to the vehicle group): 86.6±4.2%
Structure (SMILES): CCC(C)(C)C(=O)O[C@H]1C[C@@H](C)C=C2C=C[C@H](C)[C@H](CC[C@@H]3C[C@@H](O)CC(=O)O3)[C@H]21 [Simva, Simvastatin, reference compound]
- ABCA1 (ABCA1 [1]; Simva 5 mg/kg, CTL 100 (Table 9)): 100%
- PPARγ expression (PPARγ; HepG2 cells): 350
- PPARγ (PPARγ; [4]): 46%
- PPARγ (PPARγ; [5]): 46%
- PPARγ (PPARγ; [6]): 44%
- PPARγ (PPARγ; [7]): 40%
- PPARγ (PPARγ; [8]): 46%
- ROCK II expression (ROCK II; [9]): 45
- ROCKII (ROCK II; GGPP (10 μM) + drug 10^−5 M): 210%
- ROCKII (ROCK II; GGPP (10 μM) + drug 10^−6 M): 220%
- ROCKII (ROCK II; GGPP (10 μM) + drug 10^−7 M): 200%
- ROCKII (ROCK II; GGPP (10 μM) + drug 10^−8 M): 214%
- ROCKII (ROCK II; GGPP (10 μM) + drug 10^−9 M): 210%
- ABCA1 expression (ABCA1 [3]; HepG2 cells): 146
- HMGR (%) (HMG CoA reductase; 10^−5 M): 280%
- HMGR (%) (HMG CoA reductase; 10^−8 M): 152%
- HMGR (%) (HMG CoA reductase; 10^−9 M): 150%
- HMG CoA expression (HMG CoA reductase): 50%
